From US11547681B2, “N-acylethanolamide derivatives and uses thereof” (ELIEM THERAPEUTICS, INC., priority 2016, dated 2023)

Legend:
[1] = Plasma stability (37° C., pH 7.4), dog; assay type: in vitro ADME, Beagle dog; conditions: for % Remaining of Initial (n = 1), 0 min / % Remaining of Initial (n = 1), 15 min / % Remaining of Initial (n = 1), 30 min / % Remaining of Initial (n = 1), 60 min / % Remaining of Initial (n = 1), 120 min / % Remaining of Initial: dog plasma; for % Remaining of Initial (n = 1), 0 min: pH 7.4, 0 min; for % Remaining of Initial (n = 1), 15 min: pH 7.4, 15 min; for % Remaining of Initial (n = 1), 30 min: pH 7.4, 30 min; for % Remaining of Initial (n = 1), 60 min: pH 7.4, 60 min; for % Remaining of Initial (n = 1), 120 min: pH 7.4, 120 min; for half-life at 1 μM: male, Beagle, dog, plasma, pH 7.4, dog plasma; for % Remaining of Initial: 1 μM, n = 1
Description: (§1) Studies were carried out in mixed-gender human plasma (Lot #GLP530-5), male Sprague-Dawley rat (Lot #RAT297944, RAT313140), male CD-1 mouse (Lot #MSE237700), and male Beagle dog (Lot #BGL87670, BGL82614), collected on sodium heparin. Plasma was adjusted to pH 7.4 prior to initiating the experiments. DMSO stocks were first prepared for the test articles. Aliquots of the DMSO solutions were dosed into 700 μL of plasma, which had been pre-warmed to 37° C., at a final test article concentration of 1 μM. […] Samples were stored at 4° C. until the end of the experiment. After the final time point was sampled, the plate was mixed and then centrifuged at 3,000 rpm for 10 minutes. Calibration standards were prepared in matched matrix. […] Analytical conditions are outlined in Appendix 8-1.
as §1, with “#AS1650-2),” for “#GLP530-5),”, “#RAT297944),” for “#RAT297944, RAT313140),”, “CD-I” for “CD-1”, “#BGL91384),” for “#BGL87670, BGL82614),”, “10-1.” for “8-1.”
(§2) Studies were carried out in mixed-gender human plasma (Lot #AS1650-2), male Sprague-Dawley rat (Lot #RAT297944), male CD-1 mouse (Lot #MSE237700), and male Beagle dog (Lot #BGL91384), collected on sodium heparin. Plasma was adjusted to pH 7.4 prior to initiating the experiments. DMSO stocks were first prepared for test articles. […] Samples were stored at 4° C. until the end of experiment. After the final time point was sampled, the plate was mixed and then centrifuged at 3,000 rpm for 10 minutes. Calibration standards were prepared in matched matrix. […] Analytical conditions are outlined in Appendix 13-1.
(§3) Studies were carried out in mixed-gender human plasma (Lot #AS 1650-2), male Sprague-Dawley rat (Lot #RAT320835), male CD-1 mouse (Lot #MSE260693), and 6 male Beagle dog (Lot #BGL91384), on sodium heparin. Plasma was adjusted to pH 7.4 prior to initiating the experiments. DMSO stocks were first prepared for the test articles. Aliquots of the DMSO solutions were dosed into 700 μL of plasma, which had been pre-warmed to 37° C., at a final test article concentration of 1 μM. […] Samples were stored at 4° C. until the end of the experiment. After the final time point was sampled, the plate was mixed and then centrifuged at 3,000 rpm for 10 minutes. Calibration standards were prepared in matched matrix. […] Analytical conditions are outlined in Appendix 17-1.

[2] = Plasma stability (37° C., pH 7.4), human; assay type: in vitro ADME; conditions: for half-life at 1 μM: both sexes, human, plasma, pH 7.4, human plasma; for % Remaining of Initial (n = 1), 0 min / % Remaining of Initial (n = 1), 15 min / % Remaining of Initial (n = 1), 30 min / % Remaining of Initial (n = 1), 60 min / % Remaining of Initial (n = 1), 120 min / % Remaining of Initial: human plasma; for % Remaining of Initial (n = 1), 0 min: pH 7.4, 0 min; for % Remaining of Initial (n = 1), 15 min: pH 7.4, 15 min; for % Remaining of Initial (n = 1), 30 min: pH 7.4, 30 min; for % Remaining of Initial (n = 1), 60 min: pH 7.4, 60 min; for % Remaining of Initial (n = 1), 120 min: pH 7.4, 120 min; for % Remaining of Initial: 1 μM, n = 1
Description: as §1
as §1, with “#AS1650-2),” for “#GLP530-5),”, “#RAT297944),” for “#RAT297944, RAT313140),”, “CD-I” for “CD-1”, “#BGL91384),” for “#BGL87670, BGL82614),”, “10-1.” for “8-1.”
as §2, §3

[3] = Plasma stability (37° C., pH 7.4), mouse; assay type: in vitro ADME, CD-1 mouse; conditions: for half-life at 1 μM: male, CD-1, mouse, plasma, pH 7.4, mouse plasma; for % Remaining of Initial (n = 1), 0 min / % Remaining of Initial (n = 1), 15 min / % Remaining of Initial (n = 1), 30 min / % Remaining of Initial (n = 1), 60 min / % Remaining of Initial (n = 1), 120 min / % Remaining of Initial: mouse plasma; for % Remaining of Initial (n = 1), 0 min: pH 7.4, 0 min; for % Remaining of Initial (n = 1), 15 min: pH 7.4, 15 min; for % Remaining of Initial (n = 1), 30 min: pH 7.4, 30 min; for % Remaining of Initial (n = 1), 60 min: pH 7.4, 60 min; for % Remaining of Initial (n = 1), 120 min: pH 7.4, 120 min; for % Remaining of Initial: 1 μM, n = 1
Description: as §1
as §1, with “#AS1650-2),” for “#GLP530-5),”, “#RAT297944),” for “#RAT297944, RAT313140),”, “CD-I” for “CD-1”, “#BGL91384),” for “#BGL87670, BGL82614),”, “10-1.” for “8-1.”
as §2, §3

[4] = test article 1 μM, 37° C., pH 7.4
[5] = test article 1 μM, 37° C., pH 7.4, read-out: Half-life
[6] = calculated value beyond duration of experiment, read-out: Half-life (min), calculated half-life in parentheses

SMILES | % Remaining of Initial (n = 1), 0 min ([1]; test article 1 μM, 37° C.) | % Remaining of Initial (n = 1), 15 min ([1]; test article 1 μM, 37° C.) | % Remaining of Initial (n = 1), 30 min ([1]; test article 1 μM, 37° C.) | % Remaining of Initial (n = 1), 60 min ([1]; test article 1 μM, 37° C.) | % Remaining of Initial (n = 1), 120 min ([1]; test article 1 μM, 37° C.) | half-life at 1 μM [1, 4] | half-life at 1 μM [2, 5] | half-life at 1 μM [2, 6] | % Remaining of Initial (n = 1), 0 min ([2]; test article 1 μM, 37° C.) | % Remaining of Initial (n = 1), 15 min ([2]; test article 1 μM, 37° C.) | % Remaining of Initial (n = 1), 30 min ([2]; test article 1 μM, 37° C.) | % Remaining of Initial (n = 1), 60 min ([2]; test article 1 μM, 37° C.) | % Remaining of Initial (n = 1), 120 min ([2]; test article 1 μM, 37° C.) | half-life at 1 μM [3, 5] | % Remaining of Initial (n = 1), 0 min ([3]; test article 1 μM, 37° C.) | % Remaining of Initial (n = 1), 15 min ([3]; test article 1 μM, 37° C.) | % Remaining of Initial (n = 1), 30 min ([3]; test article 1 μM, 37° C.) | % Remaining of Initial (n = 1), 60 min ([3]; test article 1 μM, 37° C.) | % Remaining of Initial (n = 1), 120 min ([3]; test article 1 μM, 37° C.) | other results
CCCCCCCCCCCCCCCC(=O)NCCOC(=O)CCC(=O)OCC(COC(=O)CCCCCCC)OC(=O)CCCCCCC (centres unmarked) [Compound I-3, PEA-Succinate-Glycerol-Di-Caprylic] | 100% | 90% | 90% | 95% | 99% | > 2 h | > 120 min | 211 min | 100% | 109% | 84% | 65% | 77% | 9.4 min | 100% | 23% | 24% | 9.1% | 4.7% | –
CC/C=C\C/C=C\C/C=C\C/C=C\C/C=C\CCCC(=O)OCCNC(=O)CCCCCCCCCCCCCCC [Compound I-5] | 100% | 87% | 98% | 87% | 83% | > 2 h | > 120 min | 195 min | 100% | 110% | 81% | 82% | 69% | > 120 min | 100% | 109% | 86% | 73% | 75% | half-life at 1 μM [3, 6]: 213 min
CCCCC/C=C\C/C=C\CCCCCCCC(=O)OCCNC(=O)CCCCCCCCCCCCCCC [Compound I-6] | 100% | 55% | 42% | 34% | 22% | 0.6 h | > 120 min | 147 min | 100% | 79% | 102% | 74% | 53% | 56 min | 100% | 83% | 89% | 39% | 23% | –
CCCCCCCCCCCCCCCC(=O)NCCOC(=O)CCC(=O)OC[C@H]1O[C@@](CO)(O[C@H]2O[C@H](CO)[C@@H](O)[C@H](O)[C@H]2O)[C@@H](O)[C@@H]1O [Compound I-7] | 100% | <1.0% | <1.0% | <1.0% | <1.0% | < 0.0167 h | < 1 min | – | 100% | <1.0% | <1.0% | <1.0% | <1.0% | < 1 min | 100% | <1.0% | <1.0% | <1.0% | <1.0% | –
CCCCCCCCCCCCCCCC(=O)NCCOC(=O)CCC(=O)OC(CO)CO [Compound I-8] | – | – | – | – | – | – | – | – | – | – | – | – | – | – | – | – | – | – | – | % Remaining of Initial ([1]; 0 min): 100%; % Remaining of Initial ([1]; 15 min): <1.0%; % Remaining of Initial ([1]; 30 min): <1.0%; % Remaining of Initial ([1]; 60 min): <1.0%; % Remaining of Initial ([1]; 120 min): <1.0%; half-life at 1 μM [1]: < 0.0167 h; half-life at 1 μM ([2]; read-out: Half-life): < 1 min; % Remaining of Initial ([2]; 0 min): 100%; % Remaining of Initial ([2]; 15 min): <1.0%; % Remaining of Initial ([2]; 30 min): <1.0%; % Remaining of Initial ([2]; 60 min): <1.0%; % Remaining of Initial ([2]; 120 min): <1.0%; half-life at 1 μM ([3]; read-out: Half-life): < 1 min; % Remaining of Initial ([3]; 0 min): 100%; % Remaining of Initial ([3]; 15 min): <1.0%; % Remaining of Initial ([3]; 30 min): <1.0%; % Remaining of Initial ([3]; 60 min): <1.0%; % Remaining of Initial ([3]; 120 min): <1.0%

More lines, main results first:

% Remaining of Initial (n = 1), 0 min ([1]; test article 1 μM, 37° C.) | % Remaining of Initial (n = 1), 15 min ([1]; test article 1 μM, 37° C.) | % Remaining of Initial (n = 1), 30 min ([1]; test article 1 μM, 37° C.) | % Remaining of Initial (n = 1), 60 min ([1]; test article 1 μM, 37° C.) | % Remaining of Initial (n = 1), 120 min ([1]; test article 1 μM, 37° C.) | half-life at 1 μM [1, 4] | half-life at 1 μM [2, 5] | half-life at 1 μM [2, 6] | % Remaining of Initial (n = 1), 0 min ([2]; test article 1 μM, 37° C.) | % Remaining of Initial (n = 1), 15 min ([2]; test article 1 μM, 37° C.) | % Remaining of Initial (n = 1), 30 min ([2]; test article 1 μM, 37° C.) | % Remaining of Initial (n = 1), 60 min ([2]; test article 1 μM, 37° C.) | % Remaining of Initial (n = 1), 120 min ([2]; test article 1 μM, 37° C.) | half-life at 1 μM [3, 5] | % Remaining of Initial (n = 1), 0 min ([3]; test article 1 μM, 37° C.) | % Remaining of Initial (n = 1), 15 min ([3]; test article 1 μM, 37° C.) | % Remaining of Initial (n = 1), 30 min ([3]; test article 1 μM, 37° C.) | % Remaining of Initial (n = 1), 60 min ([3]; test article 1 μM, 37° C.) | % Remaining of Initial (n = 1), 120 min ([3]; test article 1 μM, 37° C.) | SMILES | other results
100% | 95% | 71% | 54% | 24% | 1.02 h | > 120 min | 135 min | 100% | 96% | 91% | 84% | 51% | 62 min | 100% | 72% | 71% | 56% | 21% | CCCCCCCCCCCCCCCC(=O)NCCOC(=O)CCC [Compound I-2] | –
100% | 8.7% | 12% | 1.2% | <1.0% | 0.0783 h | 3.8 min | – | 100% | 6.4% | 1.4% | <1.0% | <1.0% | 13 min | 100% | 49% | 17% | 2.3% | <1.0% | CCCCCCCCCCCCCCCC(=O)NCCOC(=O)CCC(=O)OCC(O)CO (centres unmarked) [Compound I-9] | –
